In patent US20240374626A1, “METHODS OF ENHANCING MILK PRODUCTION IN LACTATING MAMMALIAN SUBJECTS” (priority 2023, published 2024):

Experiments:
Type in all cases: in vivo, mouse
γH2AX = assay: Contralateral intraductal injection: γH2AX IHC in CK8+ luminal cells of MG; details: Hydroxyurea IDI at PD8.5 and PD12.5 vs contralateral PBS, at PD13.5
Experimental: (§1) Nulliparous analysis was performed using adult (10-12-week-old) female mice. For timed pregnancies and lactation analysis, CD-1 pregnant adult females were obtained from Charles Rivers. Embryos were examined at the time of mammary gland harvesting to confirm pregnancy state. […] Plugged mice were considered to be PD0.5 on the day of the observed plug. All females used in this study were age matched.
(§2) Mice were anesthetized with isoflurane (VetOne, 501017) Prior to intraductal injections, hair was removed from around the nipples using Nair hair remover. Injections into the duct of the nipple were performed with 33 G needles (Hamilton, 7803-05) and a volume of 40 μl per gland. Right inguinal, abdominal and thoracic glands were injected with doxorubicin (1.5 μg per gland, Cayman Chemical, 15007), nucleosides (40 μl per gland, Millipore-Sigma, ES-008-D) or Mk-1775 (50 μg per gland, Cayman Chemical, 21266), and left glands were injected with PBS or DMSO (Thermo Scientific, BP231) diluted in PBS.
(§3) Mammary gland tissue was fixed in 10% neutral buffered formalin (EMD Millipore, MR0458682) at 4° C. overnight. Fixation was quenched using 0.2% glycine (Fisher Scientific, BP381) in PBS, for 1 h at room temperature. […] Integrated density of nuclear γH2AX and pATR was quantified using ImageJ.

MG alveoli = assay: Contralateral intraductal injection: milk staining (IHC) integrated density per alveolus; details: Hydroxyurea IDI at PD8.5 and PD12.5 vs contralateral PBS, LD2 MG section
Experimental: as §1
(§4) Mice were anesthetized with isoflurane (VetOne, 501017) Prior to intraductal injections, hair was removed from around the nipples using Nair hair remover. Injections into the duct of the nipple were performed with 33 G needles (Hamilton, 7803-05) and a volume of 40 μl per gland. […]
Mammary gland tissue was fixed in 10% neutral buffered formalin (EMD Millipore, MR0458682) at 4° C. overnight. […] Incubation with secondary antibodies [(donkey anti-Rat 647 (Thermo-Invitrogen; A48272) and donkey anti-Rabbit 488 (Thermo-Invitrogen; A32790)] was performed for 2 h at room temperature. Sections were washed with 0.3% triton in PBS for 30 min (×3) at room temperature and mounted using flouromount-G (Southern Biotech, 0100-01). Image acquisition was performed using Zeiss Axio Imager Microscope. Macros were generated to quantify lumen milk integrated density per alveolus using Image J.

CK8+ luminal cells = assay: Contralateral intraductal injection: FACS DNA content analysis of CK8+ luminal cells; details: Hydroxyurea IDI at PD8.5 and PD12.5 vs contralateral PBS, by LD5
pATR = assay: Contralateral intraductal injection: pATR IHC in CK8+ luminal cells of MG; details: Hydroxyurea IDI at PD8.5 and PD12.5 vs contralateral PBS, at PD13.5
Experimental: as §1, §2, §3

Wee1 = assay: Contralateral intraductal injection: Wee1 expression in whole MG tissue by RT-qPCR; details: IDI of hydroxyurea into pregnant MG vs contralateral PBS
Experimental: as §1, §4
For RNA isolation from FACS purified populations, mammary gland cell suspensions were blocked using Mouse BD Fc Block™ (BD Biosciences) for 10 min. […] Total RNA quality was analyzed by agarose gel electrophoresis and quantified using an ND-1000 spectrophotometer (NanoDrop). cDNA was prepared from 500-1000 ng of total RNA using iScript cDNA synthesis kit (Bio-Rad, 1708841). Quantitative RT-qPCR was performed in triplicates using SsoAdvanced Universal SYBR Green Supermix, (Bio-Rad, 1725272). […]

Csn2 = assay: Contralateral intraductal injection: Csn2 expression in MGs by RT-qPCR; details: Hydroxyurea IDI at PD8.5 and PD12.5 vs contralateral PBS, LD2 MGs
Experimental: as §1, §2
For RNA isolation from FACS purified populations, mammary gland cell suspensions were blocked using Mouse BD Fc Block™ (BD Biosciences) for 10 min. Cells were subsequently resuspended on 1×PBS at a density of 10^7 cells/ml and stained with the following antibodies for 30 min on ice: anti-CD24 PE (Stem Cell Technologies, 60099PE.1), anti-CD29 PE-Cy7 (BioLegend, 102222), anti-CD45-APC (BioLegend,105826), Ter119-APC (BD Biosciences, 561033), CD31-ACP (BD Biosciences, 551262). Propidium iodide at a final concentration of 0.5 μg/ml was used for the discrimination of dead cells. Stromal, basal and luminal mammary populations were sorted using a BD FACS Aria II Cell Sorter. […] Total RNA quality was analyzed by agarose gel electrophoresis and quantified using an ND-1000 spectrophotometer (NanoDrop). cDNA was prepared from 500-1000 ng of total RNA using iScript cDNA synthesis kit (Bio-Rad, 1708841). Quantitative RT-qPCR was performed in triplicates using SsoAdvanced Universal SYBR Green Supermix, (Bio-Rad, 1725272). […]

`NC(=O)NO` [Hydroxyurea] was tested, and the “γH2AX in CK8+ population” value (γH2AX) was “increased”, the “increase in milk (average integrated density of milk staining among alveoli)” value (MG alveoli) was about 15% and the “decrease in 2C CK8+ population (in the overall population)” value (CK8+ luminal cells) was 5.5%. The “increase in 4C CK8+ population (in the overall population)” value (CK8+ luminal cells) was 2%, the “increase in >4C CK8+ population (in the overall population)” value (CK8+ luminal cells) was 48% and the “pATR in CK8+ population” value (pATR) was “increased”. For the same compound, the “Wee1 expression in whole MG tissue, RT-qPCR” value (Wee1) was “upregulated” and the “Csn2 expression, RT-qPCR” value (Csn2) was “increase”.
